# Experimental data as given in article PMC10041525, “New Dual Inhibitors of Bacterial Topoisomerases with Broad-Spectrum Antibacterial Activity and In Vivo Efficacy against Vancomycin-Intermediate Staphylococcus aureus” (Journal of Medicinal Chemistry, 2023).
# Several values for one entry are separate records, joined by “and”; a condition that tells them apart may be missing. Equal entries are not always repeated. Where two headings read alike, the source gives them in different places.
# What was measured:
# DNA gyrase from E. coli = target: T1, DNA gyrase from E. coli (Escherichia coli, UniProt P0AES6); assay: supercoiling HTS plate assay; type: biochemical; conditions: IC50 [nM] E. coli DNA gyrase
# T1 construct: purchased Inspiralis
# In short: (§1)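 E. coli gyrase tested by supercoiling and topo IV by relaxation in high-throughput plate format. IC50 from seven inhibitor concentrations; mean of three independent measurements.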
# A. baumannii ATCC 17978 = assay: MIC broth microdilution (CLSI); type: cell-based; conditions: Acinetobacter baumannii, ATCC17978
# In short: (§2)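 Cation-adjusted Mueller Hinton broth 2 microdilution, 5 × 10^4 cells per well in 100 μL, three parallel replicates, plates bagged to limit evaporation; growth read as OD600 after incubation.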
# S. aureus ATCC 29213 = assay: MIC broth microdilution (CLSI); type: cell-based; conditions: Staphylococcus aureus, ATCC29213
# In short: as §2
# [1] = test system: Enterococcus faecalis ATCC 29212; assay: MIC broth microdilution (CLSI); type: cell-based, E. faecalis; conditions: Enterococcus faecalis, ATCC29212; read-out: MIC
# topo IV from E. coli = target: T2, topo IV from E. coli (Escherichia coli, UniProt P20083); assay: relaxation HTS plate assay; type: biochemical; conditions: read-out: IC50
# T2 construct: purchased Inspiralis
# T2 sequence (P0AFI2 whole entry): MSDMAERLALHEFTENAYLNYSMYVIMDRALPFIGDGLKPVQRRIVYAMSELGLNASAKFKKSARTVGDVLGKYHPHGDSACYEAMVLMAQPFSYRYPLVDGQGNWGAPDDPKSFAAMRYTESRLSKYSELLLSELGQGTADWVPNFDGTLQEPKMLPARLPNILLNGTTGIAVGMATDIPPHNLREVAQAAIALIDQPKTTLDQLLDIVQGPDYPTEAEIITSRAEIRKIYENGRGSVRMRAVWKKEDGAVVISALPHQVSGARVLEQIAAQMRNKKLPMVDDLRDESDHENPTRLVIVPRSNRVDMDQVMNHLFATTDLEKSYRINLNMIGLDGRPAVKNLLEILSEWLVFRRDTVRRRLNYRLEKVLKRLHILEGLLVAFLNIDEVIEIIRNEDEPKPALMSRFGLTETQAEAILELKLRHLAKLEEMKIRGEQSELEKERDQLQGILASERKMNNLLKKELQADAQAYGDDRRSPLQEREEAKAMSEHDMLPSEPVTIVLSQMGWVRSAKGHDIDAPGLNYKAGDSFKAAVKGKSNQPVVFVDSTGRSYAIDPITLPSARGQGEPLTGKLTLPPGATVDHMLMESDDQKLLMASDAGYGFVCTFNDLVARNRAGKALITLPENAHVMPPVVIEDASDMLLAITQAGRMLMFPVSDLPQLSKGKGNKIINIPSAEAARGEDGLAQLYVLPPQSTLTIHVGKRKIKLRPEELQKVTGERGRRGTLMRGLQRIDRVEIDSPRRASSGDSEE
# T2 sequence (P20083 whole entry): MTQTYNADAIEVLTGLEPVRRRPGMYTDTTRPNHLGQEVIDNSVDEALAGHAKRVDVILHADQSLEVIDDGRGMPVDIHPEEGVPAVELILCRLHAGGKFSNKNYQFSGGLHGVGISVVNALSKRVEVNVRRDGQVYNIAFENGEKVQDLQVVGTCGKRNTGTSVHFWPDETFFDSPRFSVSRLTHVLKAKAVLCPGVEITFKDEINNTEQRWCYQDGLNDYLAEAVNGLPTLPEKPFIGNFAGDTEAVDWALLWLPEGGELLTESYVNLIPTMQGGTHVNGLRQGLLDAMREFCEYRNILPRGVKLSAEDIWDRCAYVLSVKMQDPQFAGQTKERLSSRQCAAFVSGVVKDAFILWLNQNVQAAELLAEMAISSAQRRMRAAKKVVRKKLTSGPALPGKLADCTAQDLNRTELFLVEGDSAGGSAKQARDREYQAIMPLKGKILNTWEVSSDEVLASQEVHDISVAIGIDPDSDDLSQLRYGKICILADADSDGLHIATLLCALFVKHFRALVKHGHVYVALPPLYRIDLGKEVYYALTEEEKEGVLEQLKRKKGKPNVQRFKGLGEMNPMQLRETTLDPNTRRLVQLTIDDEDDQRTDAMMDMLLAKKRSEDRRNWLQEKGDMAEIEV
# In short: as §1
# physchem = type: physicochemical
# Experimental: For the PBS, 2.38 g of disodium hydrogen phosphate dodecahydrate, 0.19 g of potassium dihydrogen phosphate, and 8.0 g of sodium chloride were added to distilled water (900 mL), and the solution was mixed overnight. […] Samples were prepared by weighing the exact mass of solid compounds (about 1 mg), and then, the appropriate volume of PBS was added to reach the final concentration of ∼1 mg/mL. […] The supernatant was diluted 3× with a 1:1 mixture of 0.1% TFA in water and acetonitrile and analyzed by HPLC. For the 7-point calibration curves, concentrated stock solutions of the compounds were prepared at concentrations of 10 and 0.5 mM in DMSO, which were diluted with a 1:1 mixture of 0.1% TFA in water and acetonitrile to the desired final concentrations and analyzed by HPLC. Results are given in μM as an average value of two independent experiments. For details on calibration curves, concentrations, analytical method, and HPLC method, see the Supporting Information.
# Thermodynamic solubility assay
# To determine thermodynamic solubility of compounds in PBS, calibration curves for the assayed compounds were prepared using seven concentrations. First, DMSO stock solutions of compounds at 10 mM and 0.5 mM concentration were prepared and then diluted (0.1% TFA in […]
# Quality control (QC) samples were diluted from stock solutions with a 1:1 mixture of 0.1% TFA in water and acetonitrile to final concentrations of 60 µM, 20 µM, and 2 µM (6 µM, 2 µM, and 0.2 µM for 7f or 0.6 µM, 0.2 µM, and 0.02 µM for 7g).
# Analytical reversed-phase UHPLC analyses were performed on Thermo Scientific Dionex UltiMate 3000 modular system (Thermo Fisher Scientific Inc., MA, USA). Waters Acquity UPLC® HSS C18 SB column (2.1 × 50 mm, 1.8 μm; Waters, Milford, MA, USA) was used at T […]
# Mobile phase consisted of 0.1% trifluoroacetic acid in ultrapure water (solvent A) and acetonitrile […]
# The obtained data was processed in Chromeleon CDS software (Thermo Fisher Scientific Inc., […]
# Analytical method was tested for accuracy, precision and linear rang. Accuracy was […]
# (or 2 or 0.2) µM and 60 (or 6 or 0.6) µM) to their true values and expressed in (%). Values were […]
# Method repeatability was determined by calculating the RSD from the separately prepared and analysed quality control samples (n = 3). […] Linearity of the […]
# method (1 (or 0.1 or 0.01) µM to 100 (or 10 or 1) µM) was evaluated from the 7-point calibration […]
# Solubility was determined in two independent experiments and results were calculated in […]
# [2] = read-out: MIC [µg/mL] (A. baumannii ATCC 17978)
# [3] = read-out: MIC [µg/mL](S. aureus ATCC 29213)
# [4] = phosphate-buffered saline (PBS), pH 7.4, PBS pH 7.4, read-out: thermodynamic solubility, Experiment 1
# [5] = phosphate-buffered saline (PBS), pH 7.4, PBS pH 7.4, read-out: thermodynamic solubility, Experiment 2
# [6] = phosphate-buffered saline (PBS), pH 7.4, thermodynamic solubility (pH = 7.4), PBS, 37 °C, 24 h, mean of two
smiles,measurement,setting,value
"Cc1[nH]c(C(=O)Nc2nc3c(N4CCOCC4)cc(C(=O)O)cc3s2)cc1Cl [16a, 2-(4-Chloro-5-methyl-1H-pyrrole-2-carboxamido)-4-morpholinobenzo[d]thiazole-6-carboxylic Acid]",IC50,DNA gyrase from E. coli,13 ± 5 nM
same,MIC,A. baumannii ATCC 17978; read-out: MIC,> 64 µg/mL
same,MIC,A. baumannii ATCC 17978; [2],> 64 µg/mL
same,MIC,S. aureus ATCC 29213; read-out: MIC,8 µg/mL
same,MIC,S. aureus ATCC 29213; [3],8 µg/mL
same,MIC,[1],1 µg/mL
same,IC50,topo IV from E. coli,< 100 nM and 38 nM
same,thermodynamic solubility (pH = 7.4),"physchem; PBS, 37 °C, 24 h, mean of two",137.58 µM
same,solubility thermodynamic at 24 h,physchem; [4],134 µM
same,solubility thermodynamic at 24 h,physchem; [5],141 µM
same,solubility thermodynamic at 24 h,physchem; [6],138 µM
same,solubility thermodynamic at 48 h,physchem; [6],137 µM
"Cc1[nH]c(C(=O)Nc2nc3c(N4CCOCC4)cc(C(=O)O)cc3s2)cc1F [16b, 2-(4-Fluoro-5-methyl-1H-pyrrole-2-carboxamido)-4-morpholinobenzo[d]thiazole-6-carboxylic Acid]",IC50,DNA gyrase from E. coli,31 ± 6 nM
same,MIC,A. baumannii ATCC 17978; [2],> 64 µg/mL
same,MIC,S. aureus ATCC 29213; read-out: MIC,64 µg/mL
same,MIC,S. aureus ATCC 29213; [3],64 µg/mL
same,MIC,[1],16 µg/mL
same,IC50,topo IV from E. coli,120 nM
same,thermodynamic solubility (pH = 7.4),"physchem; PBS, 37 °C, 24 h, mean of two",131.4 µM and 131.42 µM
same,solubility thermodynamic at 24 h,physchem; [4],140 µM
same,solubility thermodynamic at 24 h,physchem; [5],123 µM
same,solubility thermodynamic at 24 h,physchem; [6],131 µM
